Data published in paper PMC7732128, “Regulation of gene transcription by thyroid hormone receptor β agonists in clinical development for the treatment of non-alcoholic steatohepatitis (NASH)” (PLoS ONE, 2020).
Where two headings read alike, the source gives them in different places.

What was measured:
[1] = tested on: THR (ANGPTL4, CPT1A, DIO1 RNA in Huh-7 cells); assay: Differential gene expression assay in Huh-7 cells; type: cell-based, human; settings: Homo sapiens
Protocol: Hepatoma-derived Huh-7 cells (JCRB Cell Bank, JCRB0403) were obtained directly from the repository, which performed cell line authentication via isozyme analysis and comprehensively tested for microbial contamination, viral contamination, and cross culture contamination. Cells were routinely cultured in DMEM (Corning, 10-013-CM) supplemented with 10% FBS and 1% P/S at 37°C and 5% CO2 until 80–90% confluency. Cells were then detached with 0.05% trypsin (Corning, 25-052-CV), resuspended in TH-free medium (DMEM supplemented with 10% TH-depleted FBS and 1% P/S), and seeded into collagen-coated, 96-well microplates (Corning, 354407) at 5.0 x 10^4 cells/well. After 24 hrs, the culture medium was replaced with treatment media. Cells were treated for 24 hrs. TH-depletion of the FBS via resin treatment was accomplished as previously described. All treatment media were made by mixing test compounds, serially diluted in DMSO, with TH-free medium (0.1% final DMSO concentration).
After 24 hrs in treatment media, both Huh-7 cells and PHH were processed with the TaqMan Fast Advanced Cells-to-Ct Kit (Invitrogen, A35378), according to the manufacturer’s protocol. Briefly, the treatment media was removed and the cells were washed with 50 μL cold 1X phosphate-buffered saline (Corning, 21-040-CM). Fifty μL lysis buffer containing DNase I was added to each well and the plate was incubated on a rotor at RT for 5 mins. Five μL stop solution was then added to each well and after another 2 mins incubation on a rotor at RT, the cell lysates were used for reverse transcription. The resulting cDNA was diluted 1:2 with nuclease-free, distilled water (Invitrogen, 10977015). Gene expression was measured using TaqMan Fast Advanced Master Mix (Applied Biosystems, 4444964) and the following TaqMan Gene Expression assays (Applied Biosystems, 4331182): 18S (Hs99999901_s1), ACTB (Hs01060665_g1), ANGPTL4 (Hs01101123_g1), CPT1A (Hs00912671_m1), DIO1 (Hs00174944_m1), TFG (Hs02832013_g1), THRA (Hs00268470_m1), and THRB (Hs00230861_m1). ACTB and TFG served as control housekeeping genes for Huh-7 assays and 18S and ACTB for PHH assays. Ten μL reactions were run on the qTOWER³ 84 (Analytik Jena). Relative quantification (RQ) of gene expression was calculated via the 2^−ΔΔCt method and dose-response curves were fitted by non-linear regression with variable slope. Statistical analysis was performed in GraphPad Prism 8.
We aimed to develop an in vitro, cell-based assay that is not only amenable to high throughput screening of compounds, but that can also more reliably recapitulate in vivo processes. Because activated THR may function as a transcription factor, we compared the action of THR agonists in a human hepatocyte-derived cell line and in primary human hepatocytes (PHH) by quantifying transcriptional changes resulting from compound treatment (Fig 2A). Cells were cultured in TH-depleted media for 24 hrs and then treated with compounds for 24 hrs. The RNA levels of THR target genes were then measured via RT-qPCR.

THR (THRSP RNA in PHH) = assay: Differential gene expression assay in primary human hepatocytes (PHH); type: cell-based; settings: Hepatocyte, RT-qPCR, 24 hrs treatment, read-out: PHH EC50 Mean ± SEM
HFD fed rats = assay: High-fat diet fed rat study: serum and hepatic lipid levels; type: in vivo; settings: 0.5 mg/kg I.P. single dose
Protocol: Animals were purchased from Vital River Laboratory Animal Technology Co. Ltd. and experiments were conducted at Covance Pharmaceutical R&D (Shanghai) Co., Ltd. (China). Animals were group-housed in polycarbonate cages with corncob bedding under controlled temperature (21–25°C), humidity (40–70%), and a 12-hr light/dark cycle. All procedures performed were in compliance with local animal welfare legislation, Covance global policies and procedures, and the Guide for the Care and Use of Laboratory Animals.
Eighty-four male Sprague Dawley rats, approximately 8 to 11 weeks of age, were fed with either a normal diet, ND (D12450K: 10 kcal% fat, no sucrose), or high-fat diet, HFD (D12109C: 40 kcal% fat, 1.25 gm% cholesterol, 0.5 gm% sodium cholate, 12.5 gm% sucrose). After 12 days of diet consumption, baseline serum total cholesterol and low-density lipoprotein cholesterol (LDL-C) levels were measured with the cobas 6000 c501 Chemistry Analyzer (Roche) to confirm hypercholesterolemia in the HFD fed rats. Animals were then randomized into treatment groups.
Twenty-four hrs after dosing, animals were euthanized by CO2 inhalation and serum and plasma were collected along with liver tissue. Serum total cholesterol and LDL-C levels were determined as described above. […] Caudate lobes of the liver were used for analysis of hepatic total cholesterol (Abcam, ab65390) and triglyceride levels (Abcam, ab65336) via enzyme-linked immunosorbent assay. Right lateral lobes were stored in RNAlater (Invitrogen, AM7020) at -70°C until homogenization with the Scientz-48 TissueLyser LT for downstream gene expression analysis. RNA extraction was performed at WuXi AppTec (Hong Kong) Limited (China) with the RNeasy Mini Kit (Qiagen, 74106) and RNA concentration and quality was determined using the Nanodrop 2000 (Thermo Scientific); additional quality control was assessed with agarose gel electrophoresis. One μg total RNA from each sample was then reverse-transcribed using the High Capacity cDNA Reverse Transcription kit (Applied Biosystems, 4368814) and the resulting cDNA was diluted 1:5 with nuclease-free, distilled water. Gene expression was measured using TaqMan Fast Advanced Master Mix and the following TaqMan Gene Expression assays: Actb (Rn00667869_m1), Cpt1a (Rn00580702_m1), Dio1 (Rn00572183_m1), Me1 (Rn00561502_m1), Rplp1 (Rn03467157_gH), and Thrsp (Rn01511034_m1). Actb and Rplp1 served as control housekeeping genes. Ten μL reactions were run on the qTOWER³ 84. Relative quantification (RQ) of gene expression was calculated via the 2^−ΔΔCt method and statistical analysis was performed in GraphPad Prism 8.0 and Microsoft Excel.

[2] = Huh-7, CPT1A RNA, RT-qPCR, 24 hrs treatment, read-out: Huh-7 EC50 Mean ± SEM
[3] = Huh-7, 24 hrs, n = 2 (Fig 2C), read-out: mean EC50, ANGPTL4
[4] = Huh-7, 24 hrs, n = 2 (Fig 2C), read-out: mean EC50, CPT1A
[5] = Huh-7, 24 hrs, n = 2 (Fig 2C), read-out: mean EC50, DIO1

Row | SMILES | EC50 [1, 2] | EC50 [1, 3] | EC50 [1, 4] | EC50 [1, 5] | EC50 (THR (THRSP RNA in PHH)) | decrease in serum total cholesterol (pre-dose vs 24 hrs post-dose) (HFD fed rats) | decrease in serum triglyceride levels (pre-dose vs 24 hrs post-dose) (HFD fed rats)
1 | N[C@@H](Cc1cc(I)c(Oc2ccc(O)c(I)c2)c(I)c1)C(=O)O [T3, triiodothyronine] | […] | […] | […] | […] | […] | 68.2% | 71.2%
